For 13 molecules, IC50 results are on record in patent publication US10383850B2, “Indazole and indole derivatives as inhibitors of retinoic acid related orphan receptor gamma (ROR gamma) for the treatment of immune-related diseases” (ORCA PHARMACEUTICALS LIMITED, priority 2014, dated 2019).

As usually defined, the IC50 is the midpoint of a concentration-inhibition curve.

Molecules are shown by their SMILES.

Chain of RORγ ligand binding domain (P51449 258-518): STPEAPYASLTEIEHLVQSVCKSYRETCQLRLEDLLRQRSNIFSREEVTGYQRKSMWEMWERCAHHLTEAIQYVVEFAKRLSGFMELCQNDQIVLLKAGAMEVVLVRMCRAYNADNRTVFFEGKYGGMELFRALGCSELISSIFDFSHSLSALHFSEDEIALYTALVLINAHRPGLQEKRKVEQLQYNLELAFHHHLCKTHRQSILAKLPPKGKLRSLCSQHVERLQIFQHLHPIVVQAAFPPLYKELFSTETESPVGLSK

The test system of one assay is Human CD4+CCR6+ T cells (TH17 cell differentiation). Kind of assay: Human Th17 cell differentiation assay (IL-17A in extracellular media by ELISA). Format: cell-based. As to conditions: 96 h, IL17A in extracellular media by sandwich ELISA, 4 days with cytokine cocktail and antiCD2/CD3/28 beads, read-out: Inhibition of TH17 cell differentiation - Mean IC50. (An ELISA detects its analyte on a solid surface through an enzyme-linked reagent.)
As to `O=C(O)c1ccc(-n2cc(Cc3c(Cl)cccc3C(F)(F)F)c3cccnc32)cc1` [Compound 1, 4-(3-{[2-chloro-6-(trifluoromethyl)phenyl]methyl}-1H-pyrrolo[2,3-b]pyridin-1-yl)benzoic acid], the half-maximal inhibitory concentration (IC50) is 142 nM.

With `COc1cccc(F)c1C(=O)c1cn(-c2ccc(C(=O)O)cc2)c2ccccc12` [Compound 4, 4-[3-(2-fluoro-6-methoxy-benzoyl)indol-1-yl]benzoic acid], the half-maximal inhibitory concentration (IC50) came out at 1490 nM.

Consider `COc1cccc(F)c1C(=O)c1cn(-c2ccc(C(=O)O)cc2)c2c(F)cccc12` [Compound 5, 4-[7-fluoro-3-(2-fluoro-6-methoxy-benzoyl)indol-1-yl]benzoic acid], for which the IC50 was 821 nM.

In the case of `O=C(O)c1ccc(-n2cc(Cc3c(Cl)cccc3C(F)(F)F)c3ccccc32)cc1O` [Compound 6, 4-[3-[[2-chloro-6-(trifluoromethyl)phenyl]methyl]indol-1-yl]-2-hydroxy-benzoic acid], the IC50 turned out to be 4.81 nM.

In the case of `Cc1cccc2c(C(=O)c3c(Cl)cccc3C(F)(F)F)cn(-c3ccc(C(=O)O)cc3)c12` [Compound 7, 4-[3-[2-chloro-6-(trifluoromethyl)benzoyl]-7-methyl-indol-1-yl]benzoic acid], the IC50 came out at 498 nM.

Consider `O=C(O)c1ccc(-n2cc(C(=O)c3c(Cl)cccc3C(F)(F)F)c3cccc(F)c32)nc1` [Compound 8, 6-[3-[2-chloro-6-(trifluoromethyl)benzoyl]-7-fluoro-indol-1-yl]pyridine-3-carboxylic acid], for which the half-inhibitory concentration (IC50) is 39.5 nM.

Turning to `Cc1cccc2c(C(=O)c3c(Cl)cccc3Cl)cn(-c3ccc(C(=O)O)cc3)c12` [Compound 9, 4-[3-(2,6-dichlorobenzoyl)-7-methyl-indol-1-yl]benzoic acid], the half-maximal inhibitory concentration (IC50) worked out at 1600 nM.

Regarding `COc1cccc(F)c1C(=O)c1nn(-c2ccc(C(=O)O)cc2)c2ccccc12` [Compound 10, 4-[3-(2-fluoro-6-methoxy-benzoyl)indazol-1-yl]benzoic acid], the IC50 amounted to 455 nM.

As to `O=C(O)c1ccc(-n2cc(C(=O)c3c(F)cccc3OC(F)(F)F)c3cccc(F)c32)cc1` [Compound 12, 4-[7-fluoro-3-[2-fluoro-6-(trifluoromethoxy)benzoyl]indol-1-yl]benzoic acid], the half-inhibitory concentration (IC50) came out at 192 nM.

For `O=C(O)c1ccc(-n2cc(C(=O)c3c(F)cccc3OC(F)(F)F)c3cccc(F)c32)c(F)c1` [Compound 13, 3-fluoro-4-[7-fluoro-3-[2-fluoro-6-(trifluoromethoxy)benzoyl]indol-1-yl]benzoic acid], the concentration for half-maximal inhibition (IC50) was determined as 181 nM.

For `O=C(O)c1ccc(-n2cc(C(=O)c3c(F)cccc3OC(F)(F)F)c3ccccc32)cc1` [Compound 14, 4-[3-[2-fluoro-6-(trifluoromethoxy)benzoyl]indol-1-yl]benzoic acid], the IC50 was 338 nM.

The same assay, now with this note: 96 h, read-out: Inhibition of TH17 cell differentiation - Mean IC50.
For the molecule `O=C(O)c1ccc(-n2cc(Cc3c(Cl)cccc3C(F)(F)F)c3ccccc32)cc1` [Compound 2, 4-(3-{[2-chloro-6-(trifluoromethyl)phenyl]methyl}-1H-indol-1-yl)benzoic acid], the IC50 was determined as 33.6 nM.

Turning to `O=C(O)c1ccc(-n2cc(C(=O)c3c(Cl)cccc3C(F)(F)F)c3cncnc32)cc1` [Compound 3, 4-[5-[2-chloro-6-(trifluoromethyl)benzoyl]pyrrolo[2,3-d]pyrimidin-7-yl]benzoic acid], the IC50 was 356 nM.

The next assay addresses RORγ ligand binding domain (Homo sapiens (Human), UniProt P51449). Kind of assay: RORγ FRET assay (SRC-1 peptide binding to RORγ ligand binding domain).
Conditions: not given
Take `O=C(O)c1ccc(-n2cc(Cc3c(Cl)cccc3C(F)(F)F)c3cccnc32)cc1` [Compound 1, 4-(3-{[2-chloro-6-(trifluoromethyl)phenyl]methyl}-1H-pyrrolo[2,3-b]pyridin-1-yl)benzoic acid]: the IC50 is 196 nM.

The same assay, now with this note: read-out: RORγ FRET - Mean IC50.
As to `O=C(O)c1ccc(-n2cc(Cc3c(Cl)cccc3C(F)(F)F)c3ccccc32)cc1` [Compound 2, 4-(3-{[2-chloro-6-(trifluoromethyl)phenyl]methyl}-1H-indol-1-yl)benzoic acid], the IC50 is 71.8 nM.
